Measurements: ChEMBL document CHEMBL4813975, “Discovery and characterization of a novel glucose-6-phosphate dehydrogenase (G6PD) inhibitor via high-throughput screening” (Bioorg Med Chem Lett, 2021)
Active and inactive are the calls of the source. No cut-off for these calls is given here.

Experiments:
[1] = molecular target: T1, Glucose-6-phosphate 1-dehydrogenase (Homo sapiens, UniProt P11413); test: Inhibition of G6PD (unknown origin) assessed as reduction in 6-phospho-D-glucono-1,5-lactone and NADPH production using glucose-6-phosphate and NADP+ as substrate incubated for 15 mins by UV absorption photometry assay
T1 sequence (P11413 whole entry): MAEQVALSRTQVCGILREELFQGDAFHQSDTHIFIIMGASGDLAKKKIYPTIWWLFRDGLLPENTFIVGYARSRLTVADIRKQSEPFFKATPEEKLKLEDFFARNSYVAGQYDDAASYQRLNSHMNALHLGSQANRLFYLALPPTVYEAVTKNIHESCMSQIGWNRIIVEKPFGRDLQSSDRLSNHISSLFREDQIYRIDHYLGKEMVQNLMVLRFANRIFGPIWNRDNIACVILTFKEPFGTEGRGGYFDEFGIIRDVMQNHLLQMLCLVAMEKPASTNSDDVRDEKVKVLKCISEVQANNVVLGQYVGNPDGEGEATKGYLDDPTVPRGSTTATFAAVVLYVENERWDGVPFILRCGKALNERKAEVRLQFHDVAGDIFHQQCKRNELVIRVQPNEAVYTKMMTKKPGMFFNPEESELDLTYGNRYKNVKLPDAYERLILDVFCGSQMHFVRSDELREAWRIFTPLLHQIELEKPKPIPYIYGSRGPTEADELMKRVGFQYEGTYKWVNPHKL

[2] = molecular target: T1, Glucose-6-phosphate 1-dehydrogenase; test: Non-competitive inhibition of G6PD (unknown origin) using glucose-6-phosphate and varying concentrations of NADP+ as substrate by Michaelis-Menten analysis
[3] = molecular target: T1, Glucose-6-phosphate 1-dehydrogenase; test: Binding affinity to G6PD (unknown origin) assessed as equilibrium dissociation constant by surface plasmon resonance assay
[4] = molecular target: T1, Glucose-6-phosphate 1-dehydrogenase; test: Competitive inhibition of G6PD (unknown origin) using glucose-6-phosphate and varying concentrations of NADP+ as substrate by Michaelis-Menten analysis
[5] = molecular target: T1, Glucose-6-phosphate 1-dehydrogenase; test: Competitive inhibition of G6PD (unknown origin) using varying concentrations of G6P and NADP+ as substrate by Michaelis-Menten analysis
[6] = molecular target: T1, Glucose-6-phosphate 1-dehydrogenase; test: Non-competitive inhibition of G6PD (unknown origin) using varying concentrations of G6P and NADP+ as substrate by Michaelis-Menten analysis
[7] = molecular target: T1, Glucose-6-phosphate 1-dehydrogenase; test: Inhibition of G6PD in human OVCAR-3 cells assessed as thermal instability of the enzyme by CETSA analysis; assay type: cell-based
[8] = tested on: OVCAR-3; test: Inhibition of colony formation in human OVCAR-3 cells overexpressing G6PD incubated for 14 days by crystal violet staining based assay; assay type: functional, cell-based
[9] = molecular target: T1, Glucose-6-phosphate 1-dehydrogenase; test: Reversible inhibition of G6PD (unknown origin) using glucose-6-phosphate and NADP+ as substrate measured after dilution of 12XIC50 to 0.6XIC50 by dilution based analysis

Q: For `O=c1c(O)c(-c2ccc(O)c(O)c2)oc2cc(O)cc(O)c12`, which IC50 [1] is on record?
A: Its IC50 is 31 µM.

Q: For `O=C(/C=C/c1ccc(O)c(O)c1)O[C@@H]1C[C@](O)(C(=O)O)C[C@@H](OC(=O)/C=C/c2ccc(O)c(O)c2)[C@H]1O`, which IC50 [1] is on record?
A: Its IC50 is 37.7 µM.

Q: Which IC50 [1] does the source give for `OC[C@H]1O[C@@H](Oc2cc(O)cc(/C=C/c3ccc(O)cc3)c2)[C@H](O)[C@@H](O)[C@@H]1O` [PICEID] here?
A: The IC50 was 74.5 µM.

Q: With `C[C@]12CC[C@H](O)CC1=CC[C@@H]1[C@@H]2CC[C@]2(C)C(=O)CC[C@@H]12` [PRASTERONE] as the compound, how does the IC50 [1] read?
A: Its IC50 is 12.5 µM.

Q: For `COc1cc(O)c2c(c1)oc(=O)c1c3cc(O)c(O)cc3oc21` [WEDELOLACTONE], which Ki [2] is on record?
A: The Ki was 5.79 µM.

Q: And the Kd [3]?
A: The Kd was 3.64 µM.

Q: And the IC50 [1]?
A: The IC50 was 5.18 µM.

Q: And the Ki [4]?
A: Its Ki is 1.19 µM.

Q: What about the Ki [5] of the same compound?
A: The Ki was 2.54 µM.

Q: What about the Ki [6] of the same compound?
A: The Ki was 9.94 µM.

Q: And the inhibition [7]?
A: Its inhibition is “Active”.

Q: And the EC50 ([8]; OVCAR-3, 336 h)?
A: The EC50 was 10.6 µM.

Q: And the inhibition ([8]; time 14.0 day)?
A: Its inhibition is “Dose-Dependent Effect”.

Q: What about the inhibition [9] of the same compound?
A: The inhibition was “Active”.
